The NIST ThermoML archive (doi:10.1016/j.fluid.2012.11.005)

Assay: excess molar enthalpy (molar enthalpy of mixing); xn = mol fraction of the nth substance listed
Conditions: 101 kPa, Liquid, Flow calorimetry

CC(C)CC(C)(C)C [2,2,4-trimethylpentane] + CCCCCO
x2 = 0
Conditions	excess molar enthalpy [kcal/mol]
298.15 K	0
313.15 K	0

CCCCCCC [heptane] + CCCCCO
x2 = 0
Conditions	excess molar enthalpy [kcal/mol]
298.15 K	0
313.15 K	0

CCCCCO [pentan-1-ol] + CC(C)CC(C)(C)C
excess molar enthalpy [kcal/mol]
Conditions	298.15 K	313.15 K
x1 = 0.0508	0.0899	–
x1 = 0.051	–	0.124
x1 = 0.0999	0.112	–
x1 = 0.1003	–	0.155
x1 = 0.1501	0.126	–
x1 = 0.1506	–	0.174
x1 = 0.2008	0.137	–
x1 = 0.2019	–	0.187
x1 = 0.25	0.143	–
x1 = 0.2512	–	0.194
x1 = 0.2999	0.148	–
x1 = 0.3012	–	0.199
x1 = 0.3516	0.148	–
x1 = 0.3517	–	0.2
x1 = 0.4025	0.147	–
x1 = 0.4026	–	0.199
x1 = 0.4514	0.145	0.194
x1 = 0.5025	0.139	–
x1 = 0.5026	–	0.187
x1 = 0.5516	0.131	–
x1 = 0.5517	–	0.177
x1 = 0.6025	0.121	–
x1 = 0.6026	–	0.164
x1 = 0.6513	0.109	0.148
x1 = 0.7015	0.0951	–
x1 = 0.7016	–	0.13
x1 = 0.7512	0.0802	–
x1 = 0.7513	–	0.11
x1 = 0.8003	0.064	0.088
x1 = 0.8503	0.048	0.0654
x1 = 0.9008	0.0311	0.0423
x1 = 0.9503	0.0147	0.0205
x1 = 1	0	0

CCCCCO [pentan-1-ol] + CCCCCCC
excess molar enthalpy [kcal/mol]
Conditions	298.15 K	313.15 K
x1 = 0.0484	–	0.113
x1 = 0.0563	0.088	–
x1 = 0.0981	–	0.148
x1 = 0.1109	0.111	–
x1 = 0.149	–	0.165
x1 = 0.1664	0.125	–
x1 = 0.1985	–	0.177
x1 = 0.2203	0.134	–
x1 = 0.2491	–	0.187
x1 = 0.2749	0.141	–
x1 = 0.2983	–	0.19
x1 = 0.3279	0.145	–
x1 = 0.3483	–	0.192
x1 = 0.3793	0.146	–
x1 = 0.3991	–	0.186
x1 = 0.4314	0.144	–
x1 = 0.4484	–	0.186
x1 = 0.4818	0.139	–
x1 = 0.4984	–	0.177
x1 = 0.5328	0.131	–
x1 = 0.5488	–	0.166
x1 = 0.5822	0.122	–
x1 = 0.5977	–	0.159
x1 = 0.6281	0.11	–
x1 = 0.6489	–	0.144
x1 = 0.6765	0.0984	–
x1 = 0.7003	–	0.124
x1 = 0.7235	0.0849	–
x1 = 0.7483	–	0.106
x1 = 0.7725	0.071	–
x1 = 0.7981	–	0.0845
x1 = 0.8182	0.0576	–
x1 = 0.8497	–	0.0637
x1 = 0.8643	0.0427	–
x1 = 0.8995	–	0.042
x1 = 0.9104	0.0282	–
x1 = 0.9491	–	0.0196
x1 = 0.9552	0.0138	–
x1 = 1	0	0
